In patent publication US4232121A, “Process for selecting methine dyes which inhibit cell growth” (Eastman Kodak Company, priority 1978, dated 1980):
Like-named read-outs stand apart in the source and are kept apart here.

What was measured:
Sea Urchin Eggs = test: Inhibition of cell division in fertilized sea urchin eggs; assay type: cell-based; details: arbitrary scale 0 to 5, 5 most active; dye 10^-5 to 10^-6 molar, 60 minutes after fertilization
Protocol: To suspensions in filtered sea water of fertilized sea urchin eggs there was added, three minutes after fertilization, methanolic solutions of the dyes in an amount sufficient to yield a final concentration of dye of between 10^-5 and 10^-6 molar. The final concentration of methanol was, at a maximum 1×10^-4 molar. The eggs were visually observed at 60 minutes after fertilization to determine if cell division and the formation of mitotic apparatus had been inhibited. A rating was assigned based on the concentration of dye required to inhibit cell division and synthesis of DNA.

[1] = not told
Protocol: (§1) If a published reduction potential is not available, suitable techniques for measuring reduction potential are available and can be used. […] This technique involves measurement at 20° C., of an approximately 10^-4 molar solution of the dye in an electrolyte, such as methanol which is 0.05 molar in lithium chloride, using a dropping mercury electrode. The potential values are reported by reference to a silver-silver chloride electrode in a saturated solution of potassium chloride at 20° C.

[2] = Solubility / stability comments on the dyes; assay type: physicochemical; details: Table IX
[3] = tested on: Bacillus pumilus strain K-1; test: Inhibition of bacterial growth, filter paper on inoculated agar plates; assay type: cell-based; details: Tables V and VI; 10^-3 molar, three days
[4] = Reduction potential (ER) of the dye; details: Tables I, II, V, VI, VII, IX
Protocol: as §1

[5] = Oxidation potential (Eox) of the dye; assay type: physicochemical; details: Tables I, II, V, VI

Row | ER [1] | reduction potential (ER) [1] [volts] | Comment: solubility [2] | % Bound (Bacillus pumilus (K-1)) [%] | SMILES | Sea Urchin Eggs Activity (Sea Urchin Eggs) | Diameter of Inhibition [3] | ER [4] | Eox [5]
1 | -1.12 | -1.12 | Insoluble | 93.1 | CCN1C(=CC=Cc2sc3ccc4ccccc4c3[n+]2CC)Sc2ccc3ccccc3c21 [Dye 12] | 0 | – | – | –
2 | – | – | – | – | CCN1C(=CC=Cc2sc3cc([N+](=O)[O-])ccc3[n+]2CC)Sc2cc([N+](=O)[O-])ccc21 [17,6,6'-dinitro] | – | None | -.58 | +.96
